Five compounds from US5843948A, “Piperazinophenyl- and piperazinophenyloxycarboxylic acid derivatives, and processes and intermediates for their preparation and pharmaceutical compositions comprising them” (Solvay Pharmaceuticals GmbH, priority 1996, dated 1998) can be followed below.

Each structure is given as a SMILES string.

T1 sequence (P08514 32-887 limits assumed): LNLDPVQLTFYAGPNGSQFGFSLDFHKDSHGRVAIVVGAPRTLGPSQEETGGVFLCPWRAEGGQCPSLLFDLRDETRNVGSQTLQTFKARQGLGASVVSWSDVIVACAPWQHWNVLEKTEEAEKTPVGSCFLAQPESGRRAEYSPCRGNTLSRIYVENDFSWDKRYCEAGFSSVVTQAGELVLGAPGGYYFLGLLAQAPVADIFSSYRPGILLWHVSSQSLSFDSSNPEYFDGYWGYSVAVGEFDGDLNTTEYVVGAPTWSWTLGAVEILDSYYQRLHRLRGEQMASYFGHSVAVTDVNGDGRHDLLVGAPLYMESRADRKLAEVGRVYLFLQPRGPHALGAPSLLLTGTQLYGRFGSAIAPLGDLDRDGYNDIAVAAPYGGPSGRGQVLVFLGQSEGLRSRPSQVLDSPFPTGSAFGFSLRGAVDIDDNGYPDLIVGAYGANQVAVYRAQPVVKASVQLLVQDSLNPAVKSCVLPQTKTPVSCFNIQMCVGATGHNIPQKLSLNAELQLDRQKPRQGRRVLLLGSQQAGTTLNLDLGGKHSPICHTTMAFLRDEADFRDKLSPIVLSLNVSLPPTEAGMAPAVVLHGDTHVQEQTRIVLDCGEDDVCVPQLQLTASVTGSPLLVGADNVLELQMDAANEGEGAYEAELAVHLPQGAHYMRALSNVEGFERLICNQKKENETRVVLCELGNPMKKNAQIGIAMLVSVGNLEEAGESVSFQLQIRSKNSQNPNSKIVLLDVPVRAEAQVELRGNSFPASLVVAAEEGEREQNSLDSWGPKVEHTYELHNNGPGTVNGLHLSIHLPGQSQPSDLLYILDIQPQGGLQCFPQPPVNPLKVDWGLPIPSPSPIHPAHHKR
T1 sequence (P08514 891-1039 limits assumed): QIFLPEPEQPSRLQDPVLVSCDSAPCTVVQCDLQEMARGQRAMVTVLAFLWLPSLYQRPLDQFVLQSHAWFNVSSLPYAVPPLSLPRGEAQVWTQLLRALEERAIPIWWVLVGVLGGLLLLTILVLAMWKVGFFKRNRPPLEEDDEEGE
T1 sequence (P05106 27-788): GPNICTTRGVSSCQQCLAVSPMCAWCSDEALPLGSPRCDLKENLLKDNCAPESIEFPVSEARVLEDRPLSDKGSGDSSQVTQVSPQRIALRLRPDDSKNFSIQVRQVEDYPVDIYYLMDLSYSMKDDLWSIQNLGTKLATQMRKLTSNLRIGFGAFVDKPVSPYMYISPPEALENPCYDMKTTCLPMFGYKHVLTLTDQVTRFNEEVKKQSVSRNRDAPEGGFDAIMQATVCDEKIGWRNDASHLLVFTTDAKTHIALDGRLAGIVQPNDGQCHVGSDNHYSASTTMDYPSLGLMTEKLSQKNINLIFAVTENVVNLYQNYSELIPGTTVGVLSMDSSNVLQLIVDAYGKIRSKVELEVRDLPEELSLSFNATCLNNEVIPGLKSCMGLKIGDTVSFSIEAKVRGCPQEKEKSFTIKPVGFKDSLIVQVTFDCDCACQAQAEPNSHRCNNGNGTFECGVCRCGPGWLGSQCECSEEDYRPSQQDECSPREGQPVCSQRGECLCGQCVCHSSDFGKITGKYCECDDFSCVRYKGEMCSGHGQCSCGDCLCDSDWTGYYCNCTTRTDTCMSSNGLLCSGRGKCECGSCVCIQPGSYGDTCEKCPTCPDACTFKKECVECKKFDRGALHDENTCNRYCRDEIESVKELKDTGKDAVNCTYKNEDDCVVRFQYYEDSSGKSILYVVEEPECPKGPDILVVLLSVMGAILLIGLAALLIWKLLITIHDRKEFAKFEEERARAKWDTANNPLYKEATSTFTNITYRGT

This assay addresses T1, purified GP IIb/IIIa fibrinogen receptor from human blood platelets (Homo sapiens, UniProt P05106+P08514).
T1 construct: purified GP IIb/IIIa fibrinogen receptor from human blood platelets; from tissue; host or cells: human blood platelets
Kind of assay: Inhibition of fibrinogen binding to GP IIb/IIIa, solid phase enzyme immunoassay of the ELISA type (Kouns et al.). Conditions: purified human plasma fibrinogen 20 μg/ml, 37° C., 2 hours, read-out: pIC50 (negative common logarithm of the IC50 for inhibition of the specific fibrinogen binding of GP IIb/IIIa) (converted). As to the method: The inhibitory action of the substances of the formula I on the fibrinogen binding to the fibrinogen receptor of the blood platelets, the GP IIb/IIIa, was detected in a solid phase enzyme immunoassay of the ELISA type ("Enzyme-Linked Immunosorbent Assay") according to the method described by Kouns et al. (Blood 80 (1992) 2539-2547).
A solution of purified GP IIb/IIIa fibrinogen receptor from human blood platelets (1 μg/ml in phosphate-buffered physiological saline solution, pH 7.4) was applied in portions of 100 μl/sample position to a microtitre plate and allowed to stand at 4° C. for 18 hours. Excess receptor reagent was washed off by a standard wash (3 times 350 μl of wash buffer solution/sample position: 0.01% (v/v) Tween 80 in phosphate-buffered physiological saline solution) and unoccupied residual protein binding sites were occupied by a blocking reagent [300 μl/sample position of an aqueous receptor buffer solution: 20 mmole/liter of tris(hydroxymethyl)aminomethane, 150 mmole/liter of NaCl, 1 mmole/liter of MgCl2, 1 mmole/liter of CaCl2; treated with 5% (w/v) bovine serum albumin (BSA)]. The mixture was incubated at 37° C. for 2 hours and excess blocking reagent was removed.
Purified human plasma fibrinogen [100 μl/sample position of a 20 μg/ml solution in test buffer. Test buffer=receptor buffer mixed with 1% (w/v) BSA] was then added together with the test substance dissolved therein (concentration dependent on the test substance) and incubated at 37° C. for 2 hours. Unbound fibrinogen was removed by standard washing and the incubation was continued for a further hour at room temperature after addition of biotinylated rabbit antibodies against human fibrinogen (100 μl/sample position in optimum use dilution, dissolved in test buffer) . After a further standard wash, horseradish peroxidase-conjugated streptavidin (1:2000, in suitable dilution in test buffer) was added, and the mixture was incubated again at room temperature for one hour, followed by a further standard wash.
Finally, the peroxidase substrate 2,2'-azinodi-(3-ethylbenzothiazolinesulfonate) (abbreviated below as ABTS), (100 μl/sample position of a solution of 0.4 g/liter of ABTS in 0.1 mole/liter of citric acid buffer, adjusted to pH 4 using 0.4 mole/liter of NaH2 PO4 ·2 H2 O), treated with 0.003% (w/v) hydrogen peroxide, was added and the extinction of the mixture was measured at 405 nm at 5 minute intervals for twenty minutes.
The peroxidase activity was determined from the measurements as the increase in the extinction with time. It was used to calculate the total fibrinogen binding and also the non-specific fibrinogen binding. The non-specific fibrinogen binding was determined without addition of the GP IIb/IIIa. The specific fibrinogen binding could be calculated from these two values. The effect of the test substances was expressed in IC50 values, which were obtained by interpolation from concentration-dependent measuring curves. The IC50 is that concentration in μmole/liter at which a test substance inhibits the specific fibrinogen binding of GP IIb/IIIa by 50%. The following Table 1 presents the IC50 values found for the test substance as negative common logarithms, the pIC50 values. The example numbers relate to the subsequent preparation examples.
Background: In an ELISA, binding on a coated surface is turned into a signal by an enzyme label.
Regarding `N=C(N)c1ccc(N2CCN(c3ccc(OCC(=O)O)cc3)CC2)cc1` [Example 2a, 4-[4-(4-Amidinophenyl)-1-piperazinyl]-phenoxyacetic acid], the IC50 is 1.58 nM.
Under `N=C(N)c1ccc(N2CCN(c3ccc(OCC(=O)O)cc3)CC2)nc1` [Example 6, 4-{4-[2-(5-Amidinopyridyl)]-1-piperazinyl}-phenoxyacetic acid] stands 1.55 nM.
`COC(=O)COc1ccc(N2CCN(c3ccc(C(=N)N)cn3)CC2)cc1` [Example 7, Methyl 4-{4-[2-(5-amidinopyridyl)]-1-piperazinyl}phenoxyacetate]: the IC50 is 36.3 nM.
With `N=C(N)c1ccc(N2CCN(c3ccc(CCC(=O)O)cc3)CC2)nc1` [Example 10, 3-{4-[4-(2-(5-Amidinopyridyl))-1-piperazinyl]-phenyl}propionic acid], the IC50 was 30.2 nM.
To `N=C(N)c1ccc(N2CCN(c3ccc(CCC(=O)O)cc3)CC2)cc1` [Example 12] belongs 28.2 nM.
